{"source": "patent US6794491B1", "about": "“Polypeptides, their production and use” (Takeda Chemical Industries, Ltd., priority 1995, dated 2004)", "key": {"[1]": {"assay": "plasma growth hormone (GH) level in freely moving rats, GHRH-induced", "type": "in vivo, male Wistar rats", "conditions": "50 nmol into the third ventricle, 5 μg/kg GHRH 10 min later", "experimental": "Mature male Wistar rats were anesthetized with pentobarbital 50 mg/kg i.p. and, as in Example 41, a stainless-steel guide cannula AG-12 (0.4 mm in. dia., 0.5 mm out. dia., EICOM) was implanted in position with its tip situated in the upper part of the third ventricle. After the operation the rats were housed in individual cages and kept for at least 3 days for recuperation and, then, a cannula (30 cm long, 0.5 mm in. dia., 0.9 mm out. dia., Natsume Seisakusho) filled with heparin (200 U/ml)-containing saline was inserted into the right atrium from the right jugular vein under pentobarbital anesthesia. The rats were maintained overnight for complete arousal from anesthesia and then transferred to transparent acrylic cages (30 cm×30 cm×35 cm). A 1 ml tuberculin syringe with a 24-G needle (both by Termo) was connected to the cannula inserted in the atrium and 300 μl of blood was drawn. To prevent clotting, the syringe was filled with 20 μl of saline containing 200 U/ml of heparin beforehand. […] The concentrations of GH in the plasma were determined by radioimmunoassay.\nThe results were expressed as a mean±S.E.M. To test for significant difference between the group treated with 19P2-L31 dissolved in PBS and the control group treated with PBS alone, Student's t-test was used. […]"}, "[2]": {"assay": "plasma pituitary hormone level after administration into the third ventricle, pentobarbital anesthesia", "type": "in vivo, male Wistar rats", "experimental": "The inventors explored the effect of 19P2-L31 administered into the third ventricle on pituitary hormone levels in the plasma. Mature male Wistar rats (body weights at operation: 290-350 g) were anesthetized with pentobarbital, 50 mg/kg i.p., and each immobilized in a rat brain stereotaxic apparatus. The incisor bar was set 3.3 mm lower from the interaural line. The skull was exposed, and using a dental drill a hole was made on the bone for implantation of a guide cannula. In addition, an anchor screw was buried in one position around the hole. A stainless-steel guide cannula, AG-12 (0.4 mm in. dia., 0.5 mm out. dia., EICOM), was inserted in such a manner that its tip would be situated in the upper part of the third ventricle. With reference to the atlas of Paxinos and Watson (1986), the stereotaxic coordinates were AP: +7.2 mm (from interaural line), L: 0.0 mm, and H: +2.0 mm (from interaural line). The guide cannula was secured to the skull using an instant adhesive, a dental cement, and an anchor piece. A stainless-steel dummy cannula, AD-12 (0.35 mm out. dia., EICOM), was then passed through the guide cannula and locked in position with a cap nut (EICOM). After the operation the rats were housed in individual cages and kept for at least 3 days for recuperation before starting the experiment.\nThe operated rat was anesthetized with pentobarbital 50 mg/kg i.p. and immobilized in dorsal position. After the bilateral jugular veins were exposed, 400 μl of blood was drawn using a 1 ml tuberculin syringe and a 24-G needle (both by Termo). To prevent clotting, the syringe was filled with 20 μl of saline containing 200 U/ml of heparin beforehand. The cap nut and dummy cannula were removed from the rat skull and, instead, a stainless steel microinjection cannula (0.17 mm in. dia., 0.35 mm out. dia., EICOM) connected to Teflon tube (50 cm long, 0.1 mm in. dia., 0.4 mm out. dia., EICOM) was inserted. The length of the microinjection cannula was adjusted beforehand so that its tip would be emergent from the guide cannula by 1 mm. One end of the Teflon tube was connected to a microsyringe pump and either PBS or 19P2-L31 dissolved in PBS was injected, in a total volume of 10 μl, into the third ventricle at a flow rate of 2.5 μl/min. After a standby time of 1 minute following infusion, the microinjection cannula was disconnected and the dummy cannula was reinstated and locked in position with a cap nut. Immediately before initiation of intraventricular administration and 10, 20, 30, 40, and 60 minutes after initiation of administration, 400 μl portions of blood were drawn from the jugular vein. Each blood sample was centrifuged (5,000 rpm, 10 min.) with a high-speed refrigerated microcentrifuge (MR-150, Tommy Seiko) and the supernatant (plasma) was recovered. The amounts of pituitary hormones [prolactin, luteinizing hormone (LH), adrenocorticotropic hormone (ACTH), thyroid-stimulating hormone (TSH), and growth hormone (GH)] in the plasma were respectively determined by radioimmunoassays.\nThe results were expressed as a mean±S.E.M. To test for significant difference between the group treated with 19P2-L31 dissolved in PBS and the control group treated with PBS alone, Student's t-test was used. According to the two-tailed test, p<0.05 was assumed to be the minimal level of significance."}, "[3]": {"conditions": "50 nmol into the third ventricle, anesthetized rats"}}, "note": "Where no end group is shown, it is not given here.", "data": [{"substance": "Ser-Arg-Ala-His-Gln-His-Ser-Met-Glu-Ile-Arg-Thr-Pro-Asp-Ile-Asn-Pro-Ala-Trp-Tyr-Ala-Gly-Arg-Gly-Ile-Arg-Pro-Val-Gly-Arg-Phe-NH2 (SRAHQHSMEIRTPDINPAWYAGRGIRPVGRF-NH2) [19P2-L31, synthetic ligand polypeptide]", "values": [{"measurement": "GHRH-induced elevation of plasma GH", "setting": "[1]", "value": "significantly inhibited"}, {"measurement": "plasma ACTH", "setting": "[2]; [3]", "value": "none showed significant changes"}, {"measurement": "plasma LH", "setting": "[2]; [3]", "value": "none showed significant changes"}, {"measurement": "plasma TSH", "setting": "[2]; [3]", "value": "none showed significant changes"}, {"measurement": "plasma prolactin", "setting": "[2]; [3]", "value": "none showed significant changes"}, {"measurement": "plasma GH level", "setting": "[2]; 50 nmol into the third ventricle, anesthetized rats, 10, 30, and 40 minutes after administration, not statistically significant", "value": "Tendencies toward decrease"}, {"measurement": "plasma GH level", "setting": "[2]; 50 nmol into the third ventricle, anesthetized rats, 20 minutes after administration, versus control", "value": "significantly decreased"}, {"measurement": "plasma GH level", "setting": "[2]; 50 nmol into the third ventricle, anesthetized rats, 60 minutes after administration", "value": "no difference from the control group"}, {"measurement": "plasma growth hormone level", "setting": "[2]; injected into the third ventricle of rats, summary", "value": "depressed"}]}]}
